Assay results from patent US6414004B1 (priority 1998, dated 2002).

Experiments:
[1] = tested on: HEp2 cells; assay: Cytotoxicity, HEp2 cell proliferation (microscopy, MTT test); format: cell-based; conditions: 48-72 h incubation at 37° C.
Experimental: (§1) The cytotoxicity of each substance was determined by direct observation under microscope, and mitochondrial dehydrogenases activities were assayed according to the MTT test (F. Denizot et al., Immunol. Methods, 1986, 89, 271).
(§2) The concentration of compound which, after 48-72 h of incubation at 37° C., inhibited by 50% the cell proliferation was defined as cytotoxic dose 50% (CD50).

[2] = tested on: HeLa cells; assay: Cytotoxicity, HeLa cell proliferation (microscopy, MTT test); format: cell-based; conditions: 48-72 h incubation at 37° C.
Experimental: as §1, §2

[3] = tested on: Polio 1 (Brunhilde strain); format: cell-based; conditions: Polio 1, plaque reduction
[4] = tested on: ECHO 9 (ATCC: VR-133); assay: Antiviral activity, direct inhibition of plaque number; format: cell-based; conditions: ECHO 9, plaque reduction; read-out: Concentration inhibiting by 100% viral replication
[5] = tested on: Measles (Edmonston strain); assay: as above; format: cell-based; conditions: Measles morbillivirus, read-out: Concentration inhibiting by 100% viral replication
[6] = tested on: Coxsackie B1 (ATCC: VR-28); assay: as above; format: cell-based; conditions: Coxsackie B1, plaque reduction; read-out: Concentration inhibiting by 100% viral replication
[7] = tested on: HRV-2; assay: Rhinovirus cytopathic effect reduction in HeLa-Ohio cells (MTT test); format: cell-based; conditions: HRV-2, HeLa-Ohio cells
[8] = tested on: HRV-9; assay: as above; format: cell-based; conditions: HRV-9, HeLa-Ohio cells
[9] = tested on: HRV-15; assay: as above; format: cell-based; conditions: HRV-15, HeLa-Ohio cells
[10] = tested on: HRV-29; assay: as above; format: cell-based; conditions: HRV-29, HeLa-Ohio cells
[11] = tested on: HRV-70; assay: as above; format: cell-based; conditions: Enterovirus, HRV70; HRV-70, HeLa-Ohio cells; read-out: Concentration inhibiting by 100% viral replication
[12] = tested on: HRV-86; assay: as above; format: cell-based; conditions: Enterovirus, HRV86; HRV-86, HeLa-Ohio cells; read-out: Concentration inhibiting by 100% viral replication
[13] = tested on: HRV-89; assay: as above; format: cell-based; conditions: HRV-89, HeLa-Ohio cells
[14] = tested on: HRV-1B; assay: as above; format: cell-based
[15] = tested on: HRV-14; assay: Rhinovirus cytopathic effect reduction in HeLa-Ohio cells (MTT test); format: cell-based; conditions: HRV-14, HeLa-Ohio cells

For CSc1noc(-c2ccc(OCCc3ccccc3)cc2)c1C#N [ON-6, 3-Methylthio-5-[4-(2-phenyl-1-ethoxy)-phenyl]-4-isoxazolecarbonitrile], the “Concentration inhibiting by 50% HEp2 cell proliferation: CD50” value [1] was greater than 20 µM, the “Concentration inhibiting by 50% HeLa cell proliferation: CD50” value [2] was greater than 20 µM and the “Concentration inhibiting by 100% viral replication” value [3] was 0.2 µM. The IC100 [4] was 0.2 µM, the IC100 [5] was 1 µM and the IC100 [6] was 10 µM. The “Concentration inhibiting by 100% viral replication” value [7] was 4 µM, the “Concentration inhibiting by 100% viral replication” value [8] was 8 µM and the “Concentration inhibiting by 100% viral replication” value [9] was 6 µM. The “Concentration inhibiting by 100% viral replication” value [10] was 2 µM, the IC100 [11] was 10 µM and the IC100 [12] was 6 µM. The “Concentration inhibiting by 100% viral replication” value [13] was 2 µM and the “Concentration inhibiting by 100% viral replication” value [14] was 5 µM.

For CSc1noc(-c2ccc(OCCCc3ccccc3)cc2)c1C#N [ON-7, 3-Methylthio-5-[4-(3-phenyl-1-propoxy)-phenyl]-4-isoxazolecarbonitrile], the “Concentration inhibiting by 50% HEp2 cell proliferation: CD50” value [1] was greater than 25 µM, the “Concentration inhibiting by 50% HeLa cell proliferation: CD50” value [2] was greater than 25 µM and the “Concentration inhibiting by 100% viral replication” value [3] was 0.4 µM. For the same compound, the IC100 [4] was 0.2 µM, the IC100 [5] was 10 µM and the IC100 [6] was 0.6 µM. For the same compound, the “Concentration inhibiting by 100% viral replication” value [10] was 5 µM, the IC100 [11] was 5 µM and the IC100 [12] was 5 µM. The “Concentration inhibiting by 100% viral replication” value [13] was 5 µM, the “Concentration inhibiting by 100% viral replication” value [14] was 5 µM and the melting point was 99 to 100 °C.

For CSc1noc(-c2ccc(OCCOc3ccccc3)cc2)c1C#N [ON-8, 3-Methylthio-5-[4-(2-phenoxy-1-ethoxy)-phenyl]-4-isoxazolecarbonitrile], the “Concentration inhibiting by 50% HEp2 cell proliferation: CD50” value [1] was greater than 25 µM, the “Concentration inhibiting by 50% HeLa cell proliferation: CD50” value [2] was greater than 25 µM and the “Concentration inhibiting by 100% viral replication” value [3] was 10 µM. For the same compound, the IC100 [4] was 0.2 µM, the IC100 [6] was 10 µM and the IC100 [11] was 5 µM. For the same compound, the IC100 [12] was 5 µM, the “Concentration inhibiting by 100% viral replication” value [13] was 5 µM and the “Concentration inhibiting by 100% viral replication” value [14] was 5 µM. The melting point was 128 to 131 °C.

With CSc1noc(-c2ccc(OCCCOc3ccccc3)cc2)c1C#N [ON-9, 3-Methylthio-5-[4-(3-phenoxy-1-propoxy)-phenyl]-4-isoxazolecarbonitrile] the “Concentration inhibiting by 50% HEp2 cell proliferation: CD50” value [1] was 20 µM, the “Concentration inhibiting by 50% HeLa cell proliferation: CD50” value [2] was 20 µM and the IC100 [4] was 0.1 µM. It also gave an IC100 [5] of 10 µM, an IC100 [6] of 1 µM and an IC100 [11] of 5 µM. The IC100 [12] was 5 µM, the “Concentration inhibiting by 100% viral replication” value [13] was 5 µM and the “Concentration inhibiting by 100% viral replication” value [14] was 10 µM. The melting point was 121 to 123 °C.

With CSc1noc(-c2ccc(OCCCCOc3ccccc3)cc2)c1C#N [ON-10, 3-Methylthio-5-[4-(4-phenoxy-1-butoxy)-phenyl]-4-isoxazolecarbonitrile] the “Concentration inhibiting by 50% HEp2 cell proliferation: CD50” value [1] was 10 µM, the “Concentration inhibiting by 50% HeLa cell proliferation: CD50” value [2] was 10 µM and the IC100 [4] was 1 µM. The IC100 [5] was 0.02 µM, the IC100 [6] was 0.02 µM and the “Concentration inhibiting by 100% viral replication” value [15] was 1 µM. For the same compound, the “Concentration inhibiting by 100% viral replication” value [10] was 1 µM, the IC100 [11] was 1 µM and the IC100 [12] was 1 µM. For the same compound, the “Concentration inhibiting by 100% viral replication” value [13] was 1 µM, the “Concentration inhibiting by 100% viral replication” value [14] was 2 µM and the melting point was 113 to 114 °C.

In the case of CSc1noc(-c2ccc(OCCOc3ccc([N+](=O)[O-])cc3)cc2)c1C#N [ON-11, 3-Methylthio-5-[4-[2-(4-nitrophenoxy)ethoxy]phenyl]-4-isoxazolecarbonitrile], the “Concentration inhibiting by 50% HEp2 cell proliferation: CD50” value [1] is reported as 25 µM, the “Concentration inhibiting by 50% HeLa cell proliferation: CD50” value [2] is reported as 10 µM and the IC100 [4] is reported as 4 µM. The IC100 [5] was 10 µM, the IC100 [6] was 10 µM and the IC100 [11] was 8 µM. The IC100 [12] was 2 µM and the melting point was 170 to 171 °C.

With CSc1noc(-c2ccc(OCCOc3ccc(C)cc3)cc2)c1C#N [ON-12, 3-Methylthio-5-[4-[2-(4-methylphenoxy)ethoxy]phenyl]-4-isoxazolecarbonitrile] the “Concentration inhibiting by 50% HEp2 cell proliferation: CD50” value [1] was greater than 25 µM, the “Concentration inhibiting by 50% HeLa cell proliferation: CD50” value [2] was greater than 25 µM and the “Concentration inhibiting by 100% viral replication” value [3] was 1 µM. It also gave an IC100 [4] of 0.06 µM, an IC100 [5] of 10 µM and an IC100 [6] of 10 µM. The IC100 [11] was 5 µM, the IC100 [12] was 5 µM and the “Concentration inhibiting by 100% viral replication” value [13] was 5 µM. For the same compound, the melting point was 139 to 140 °C.

In the case of CCOC(=O)c1ccc(OCCOc2ccc(-c3onc(SC)c3C#N)cc2)cc1 [ON-13, Ethyl-4-[[2-[4-(3-methylthio-4-cyano-5-isoxazolyl)-phenoxy]-ethyl]-oxy]benzoate], the “Concentration inhibiting by 50% HEp2 cell proliferation: CD50” value [1] is reported as 25 µM, the “Concentration inhibiting by 50% HeLa cell proliferation: CD50” value [2] is reported as 10 µM and the “Concentration inhibiting by 100% viral replication” value [3] is reported as 10 µM. For the same compound, the IC100 [5] was 0.2 µM, the IC100 [6] was 0.1 µM and the “Concentration inhibiting by 100% viral replication” value [15] was 2 µM. It also gave an IC100 [11] of 1 µM, an IC100 [12] of 1 µM and a melting point of 162 to 164 °C.

For CSc1noc(-c2ccc(OCCOc3ccc(Br)cc3)cc2)c1C#N [ON-14, 3-Methylthio-5-[4-[2-(4-bromophenoxy)ethoxy]phenyl]-4-isoxazolecarbonitrile], the “Concentration inhibiting by 50% HEp2 cell proliferation: CD50” value [1] was greater than 25 µM, the “Concentration inhibiting by 50% HeLa cell proliferation: CD50” value [2] was 10 µM and the “Concentration inhibiting by 100% viral replication” value [3] was 1 µM. It also gave an IC100 [4] of 0.06 µM, an IC100 [5] of 0.2 µM and an IC100 [6] of 0.06 µM. The “Concentration inhibiting by 100% viral replication” value [15] was 2 µM, the IC100 [11] was 2 µM and the IC100 [12] was 2 µM. The “Concentration inhibiting by 100% viral replication” value [13] was 2 µM and the melting point was 156 to 157 °C.
